{"source": "paper PMC10604444", "about": "“Extra-Synaptic GABAA Receptor Potentiation and Neurosteroid-Induced Learning Deficits Are Inhibited by GR3027, a GABAA Modulating Steroid Antagonist” (Biomolecules, 2023)", "biological_target": "T1, human α5β3γ2L GABAA receptors expressed in HEK-293 cells (Homo sapiens, UniProt P28472+P31644)", "T1 construct": "The coding regions of the human GABAA receptor subunits were then amplified by PCR; expressed in transfected cells; host or cells: HEK-293 (permanently transfected, pcDNA3.1 vectors, CMV promoter)", "T1 sequence (P31644 32-462)": "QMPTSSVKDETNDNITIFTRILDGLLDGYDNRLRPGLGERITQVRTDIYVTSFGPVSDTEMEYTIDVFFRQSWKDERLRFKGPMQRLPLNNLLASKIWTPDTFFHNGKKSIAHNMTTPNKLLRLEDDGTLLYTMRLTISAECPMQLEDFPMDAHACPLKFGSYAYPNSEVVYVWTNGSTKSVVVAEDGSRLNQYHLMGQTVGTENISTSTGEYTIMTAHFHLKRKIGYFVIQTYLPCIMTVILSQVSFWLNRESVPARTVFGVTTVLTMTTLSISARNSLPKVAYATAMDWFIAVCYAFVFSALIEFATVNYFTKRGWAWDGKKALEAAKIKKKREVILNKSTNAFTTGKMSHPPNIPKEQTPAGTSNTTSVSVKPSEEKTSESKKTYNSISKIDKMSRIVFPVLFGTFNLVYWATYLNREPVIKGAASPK", "T1 sequence (P28472 26-473 isoform P28472-2 limits assumed)": "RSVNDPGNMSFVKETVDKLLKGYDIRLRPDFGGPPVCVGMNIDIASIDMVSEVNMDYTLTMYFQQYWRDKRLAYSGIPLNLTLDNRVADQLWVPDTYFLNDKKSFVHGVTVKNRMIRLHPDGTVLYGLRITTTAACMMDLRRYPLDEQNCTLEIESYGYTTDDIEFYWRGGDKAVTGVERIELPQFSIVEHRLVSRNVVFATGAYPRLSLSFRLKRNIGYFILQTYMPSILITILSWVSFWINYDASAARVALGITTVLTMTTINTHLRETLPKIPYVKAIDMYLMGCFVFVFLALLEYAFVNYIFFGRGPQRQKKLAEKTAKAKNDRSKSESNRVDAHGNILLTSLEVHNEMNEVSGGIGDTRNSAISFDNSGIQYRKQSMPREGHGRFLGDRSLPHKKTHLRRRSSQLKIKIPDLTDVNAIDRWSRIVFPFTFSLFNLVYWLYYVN", "T1 sequence (P18507 40-475 partner)": "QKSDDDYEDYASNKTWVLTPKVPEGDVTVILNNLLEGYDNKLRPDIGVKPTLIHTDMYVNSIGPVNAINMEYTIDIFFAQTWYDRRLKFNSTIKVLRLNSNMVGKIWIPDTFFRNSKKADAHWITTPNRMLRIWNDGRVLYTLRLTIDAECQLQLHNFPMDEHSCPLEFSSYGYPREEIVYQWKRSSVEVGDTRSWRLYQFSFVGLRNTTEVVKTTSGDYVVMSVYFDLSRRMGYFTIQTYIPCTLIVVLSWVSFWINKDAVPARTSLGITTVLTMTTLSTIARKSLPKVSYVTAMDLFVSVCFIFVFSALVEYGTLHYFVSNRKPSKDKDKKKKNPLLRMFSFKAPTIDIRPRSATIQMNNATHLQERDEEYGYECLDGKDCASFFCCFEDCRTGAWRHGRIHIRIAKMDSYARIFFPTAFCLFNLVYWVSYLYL", "assay": "Whole-cell patch clamp of GABA/THDOC-evoked currents, extra-synaptic protocol (Dynaflow)", "format": "cell-based", "settings": "for Current with GR3027 alone: baseline holding current +2.15 ± 1.4 pA, n = 9, not significant", "text": "Wild-type HEK-293 cells (passage 4, originating from Pasteur Institute, Paris, France) were permanently transfected with vectors including the human CMV promoter for the constitutive expression of the human α5, β3, and γ2L GABAA receptor subunits (α5β3γ2L) or the human α1, β2, and γ2L GABAA receptor subunits (α1β2γ2L). The production of the plasmids used in the sub-cloning of the different subunits is published in Rahman et al..\nThe electrophysiological recordings from HEK-293 cells were performed with the whole-cell voltage clamp technique, at room temperature (21–23 °C). After compensation for liquid junction potential, a steady holding potential of −17 mV was used in all experiments. Patch pipettes were pulled from borosilicate glass (Bergman Labora AB, Danderyd, Sweden) and polished to a resistance of 2–5 MΩ when filled with intracellular solution and immersed in a bath (extracellular) solution (for solutions, see below). The pipette tips were filled by immersion in standard intracellular solution and subsequent back-filling with intracellular solution. The recordings were made using an Axopatch 200B amplifier and a Digidata 1322A (Axon Instruments, Foster City, CA, USA) controlled via a Pentium processor-based personal computer. Data were acquired using the pCLAMP software sampled at 10 kHz, filtered at 2–10 kHz, and analyzed with Clampfit (versions 9.0, both from Axon Instruments, Foster City, CA, USA). A series resistance between the pipette and cell membrane not higher than 20 MΩ was accepted. No series resistance compensation was used. The stability of series resistance was monitored repeatedly from the time course of capacitative transients during the experiments. The measured liquid junction potential between extracellular and intracellular solutions was subtracted from all data presented, as previously described. All experiments were performed at room temperature (21–23 °C).\nIn all electrophysiological experiments, tetrahydro-deoxycorticosterone (THDOC) was used as a positive GABAA receptor steroid modulator (PAM) to mimic the effect of AP on central GABAA channels. […] THDOC (Sigma Chemical Co., St. Louis, MO, USA) and GR3027 (3α-ethynyl, 3β-hydroxyl, 5α-androstan-17-oxime, golexanolone, Umecrine Cognition AB, Stockholm, Sweden) were dissolved in dimethyl sulfoxide (DMSO) using ultrasound, for the preparation of solutions containing a final DMSO concentration of 0.1%. GR3027 was discovered within a series of molecules developed and patented by T. Bäckström and G. Ragagnin, (patent WO 2008/063128). All solutions were complemented with DMSO to achieve the same final concentration as in the steroid-containing test solution. GABA (Sigma Chemical Co., St. Louis, MO, USA) was first prepared as a stock solution (dissolved in EC with ultrasonic treatment) to the desired concentrations, with the corresponding final concentrations of test solutions (30 µM and 0.3 µM; see protocols below). GABA was added to the experimental solution without a change in osmolarity.\nThe experimental protocols were designed to mimic the physiological conditions of the tonic (extra-synaptic) and phasic (synaptic) activation of GABAA receptors observed in central neurons, depending on the subunit compositions, respectively. GABA-evoked currents in HEK-293 cells expressing extra-synaptic (α5β3γ2L) or synaptic (α1β2γ2L) types of GABAA receptors were studied using the conventional whole-cell patch clamp technique. To mimic the physiological GABA exposure, the HEK-293 cells expressing α1β2γ2L GABAA receptors were exposed to short applications (40 ms) of 30 µM GABA, whereas HEK-293 cells expressing α5β3γ2L GABAA receptors were exposed to prolonged applications (6 s) of 0.3 µM GABA, either in the absence or presence of THDOC and/or GR3027.", "note": "Like-named read-outs stand apart in the source and are kept apart here.", "data": [{"smiles": "C#C[C@]1(O)CC[C@@]2(C)[C@@H](CC[C@@H]3[C@@H]2CC[C@]2(C)/C(=N/O)CC[C@@H]32)C1", "note": "[GR3027, 3α-ethynyl-3β-hydroxyl-5α-androstan-17-oxime]", "values": [{"measurement": "IC50", "result": 344, "unit": "nM"}, {"measurement": "Imax for decrease of AUC of THDOC-potentiated GABA-mediated response", "setting": "200 nM THDOC + 0.3 µM GABA", "result": "−35", "unit": "%"}, {"measurement": "Imax for decrease of peak current amplitude of THDOC-potentiated GABA-mediated response", "setting": "200 nM THDOC + 0.3 µM GABA", "result": "−37", "unit": "%"}, {"measurement": "Imax for reduction of THDOC-mediated outward current shift", "setting": "200 nM THDOC, absence of GABA", "result": "−33", "unit": "%"}, {"measurement": "Mean change of peak current amplitude of GABA-mediated response", "setting": "1 µM GR3027 + 0.3 µM GABA, absence of THDOC, SEM 0.9, p = 0.02, n = 7", "result": "−7.0", "unit": "%"}, {"measurement": "Mean change of AUC of GABA-mediated response", "setting": "1 µM GR3027 + 0.3 µM GABA, absence of THDOC, SEM 1.5, NS, n = 7", "result": "−3.8", "unit": "%"}, {"measurement": "Effect on THDOC-induced current response (absence of GABA)", "setting": "1 µM GR3027, 1 µM THDOC", "result": "significantly reduced"}, {"measurement": "Effect on baseline holding current", "setting": "1 µM GR3027, absence of THDOC", "result": "did not change the baseline holding current"}, {"measurement": "Current with GR3027 alone", "setting": "1 µM GR3027, no GABA or THDOC", "result": "+1.6 ± 1.4 pA"}, {"measurement": "Current with GR3027 alone", "setting": "3 µM GR3027, no GABA or THDOC", "result": "+0.73 ± 0.4 pA"}, {"measurement": "Effect on THDOC-induced current response (absence of GABA)", "setting": "3 µM GR3027, 0.1, 0.3, 0.6 and 1 µM THDOC", "result": "significantly reduced"}, {"measurement": "IC50", "setting": "IC50 for decrease of AUC of THDOC-potentiated GABA-mediated response, 200 nM THDOC + 0.3 µM GABA, n = 4-14", "result": 341, "unit": "nM"}, {"measurement": "IC50", "setting": "IC50 for decrease of peak current amplitude of THDOC-potentiated GABA-mediated response, 200 nM THDOC + 0.3 µM GABA, n = 4-14", "result": 563, "unit": "nM"}]}]}
